PubChem BioAssay (NCI)
Values joined by “and” are separate entries in the source; they are usually repeats but may differ in a detail not shown here. Equal values may be shown once.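 The compound was tested at five concentrations on cells cultured in 96-well plates, with a 48-hour exposure period. GI50 is the concentration that inhibits growth by half. The concentration for full growth arrest is given as TGI.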

What was measured:
Assay in all cases: DTP human tumour cell line panel, 48 h
MOLT-4 leukemia = tested on: MOLT-4 leukemia
NCI-H226 lung = tested on: NCI-H226 lung
NCI-H23 lung = tested on: NCI-H23 lung
NCI-H460 lung = tested on: NCI-H460 lung
OVCAR-3 ovarian = tested on: OVCAR-3 ovarian
SK-OV-3 ovarian = tested on: SK-OV-3 ovarian
SNB-19 CNS = tested on: SNB-19 CNS
SR leukemia = tested on: SR leukemia
TK-10 renal = tested on: TK-10 renal
UACC-62 melanoma = tested on: UACC-62 melanoma

## N#C/C(=C\c1ccc(O)c(O)c1)C(=O)NCc1ccc(C(F)(F)F)cc1
MOLT-4 leukemia
  GI50: 3.92 µM
  TGI: 31.7 µM
NCI-H226 lung
  GI50: 19.8 µM
  TGI: 54.9 µM
NCI-H23 lung
  GI50: 4.54 µM
  TGI: 18.5 µM
NCI-H460 lung
  GI50: 6.87 µM
  TGI: > 43 µM
OVCAR-3 ovarian
  GI50: 0.507 µM
  TGI: 1.11 µM
SK-OV-3 ovarian
  GI50: 16.6 µM
  TGI: 61.4 µM
SNB-19 CNS
  GI50: 11.2 µM
  TGI: > 68 µM
SR leukemia
  GI50: 2.47 µM
  TGI: 6 µM
TK-10 renal
  TGI: 10.4 µM
UACC-62 melanoma
  GI50: 4.25 µM
  TGI: 13.9 µM

## Cc1cc2c(cc1Cl)SC(N(c1ccccc1Cl)S(=O)(=O)c1ccc(Br)s1)=NS2(=O)=O
MOLT-4 leukemia
  GI50: 15.3 µM
  TGI: 42.5 µM
NCI-H226 lung
  GI50: 23.1 µM
  TGI: > 100 µM
NCI-H23 lung
  GI50: 19.9 µM
  TGI: 56.4 µM
NCI-H460 lung
  GI50: 13.9 µM
  TGI: 36.3 µM
OVCAR-3 ovarian
  GI50: 18.2 µM
  TGI: 60.1 µM
SK-OV-3 ovarian
  GI50: 24.8 µM
  TGI: > 100 µM
SNB-19 CNS
  GI50: 19.9 µM
  TGI: 68.5 µM
SR leukemia
  GI50: 23.8 µM
  TGI: 83.4 µM
TK-10 renal
  GI50: 21.9 µM
  TGI: 66.4 µM
UACC-62 melanoma
  GI50: 20.3 µM
  TGI: 68.4 µM

## NC(Cc1ccccc1)C(=O)OCN1C(=O)C2C3C=CC(C2C1=O)C1C2C(=O)N(COC(=O)C(N)Cc4ccccc4)C(=O)C2C31 (stereo not given)
MOLT-4 leukemia
  GI50: 24.3 µM and 12 µM
  TGI: 52 µM and 42.9 µM
NCI-H226 lung
  TGI: > 100 µM and 72.1 µM
NCI-H23 lung
  TGI: 38.1 µM and 42.7 µM
NCI-H460 lung
  TGI: 27.4 µM and 30.8 µM
OVCAR-3 ovarian
  TGI: 87 µM and 67.7 µM
SK-OV-3 ovarian
  TGI: > 100 µM and 78.9 µM
SNB-19 CNS
  TGI: > 100 µM
SR leukemia
  TGI: 50.3 µM
TK-10 renal
  TGI: > 100 µM
UACC-62 melanoma
  TGI: 41.4 µM and 37.7 µM

## COc1cc2c(Oc3ccc(NC(=O)C4(C(=O)Nc5ccc(F)cc5)CC4)cc3F)ccnc2cc1OCCCN1CCOCC1
MOLT-4 leukemia
  GI50: 0.573 µM and 0.547 µM
  TGI: > 24.9 µM and 5.45 µM
NCI-H226 lung
  GI50: 0.491 µM and 0.662 µM
  TGI: 2.07 µM and 3.96 µM
NCI-H23 lung
  GI50: 0.383 µM and 0.511 µM
  TGI: 2.41 µM and > 10 µM
NCI-H460 lung
  GI50: 0.521 µM and 0.575 µM
  TGI: 2.05 µM and 2.51 µM
OVCAR-3 ovarian
  GI50: 1.46 µM and 2.25 µM
  TGI: 3.36 µM and > 10 µM
SK-OV-3 ovarian
  GI50: 1.81 µM and 1.88 µM
  TGI: 3.94 µM and 5.53 µM
SNB-19 CNS
  GI50: 1.99 µM and 2.14 µM
  TGI: 5.77 µM and > 10 µM
SR leukemia
  GI50: 0.932 µM and 0.583 µM
  TGI: 3.45 µM and 2.78 µM
TK-10 renal
  GI50: 1.03 µM and 1.36 µM
  TGI: 2.57 µM and 4.42 µM
UACC-62 melanoma
  GI50: 1.24 µM and 0.891 µM
  TGI: 2.72 µM and 2.48 µM

## O=C(O)C1C2C=CC(O2)C1C(=O)NCc1cccnc1 (stereo not given)
MOLT-4 leukemia
  TGI: > 100 µM
NCI-H226 lung
  TGI: > 100 µM
NCI-H23 lung
  TGI: > 100 µM
NCI-H460 lung
  TGI: > 100 µM
OVCAR-3 ovarian
  TGI: > 100 µM
SK-OV-3 ovarian
  TGI: > 100 µM
SNB-19 CNS
  TGI: > 100 µM
SR leukemia
  TGI: > 100 µM
TK-10 renal
  TGI: > 100 µM
UACC-62 melanoma
  TGI: > 100 µM

## COC(=O)C(C(=O)C(=O)Nc1ccc(C)cc1)c1nc2ccc([N+](=O)[O-])cc2[nH]c1=O (stereo not given)
MOLT-4 leukemia
  TGI: > 100 µM
NCI-H226 lung
  TGI: > 100 µM
NCI-H23 lung
  TGI: > 100 µM
NCI-H460 lung
  TGI: > 100 µM
OVCAR-3 ovarian
  TGI: > 100 µM
SK-OV-3 ovarian
  TGI: > 100 µM
SNB-19 CNS
  TGI: > 100 µM
SR leukemia
  TGI: > 100 µM
TK-10 renal
  TGI: > 100 µM
UACC-62 melanoma
  TGI: > 100 µM

## Cc1nnc(C[C@@H]2C=C(c3ccc(Cl)cc3)c3ccccc3-n3c(C)nnc32)o1
MOLT-4 leukemia
  GI50: 8.35 µM
  TGI: > 100 µM
NCI-H226 lung
  GI50: 12.6 µM
  TGI: > 100 µM
NCI-H23 lung
  GI50: 1.51 µM
  TGI: 96.9 µM
NCI-H460 lung
  GI50: 11.7 µM
  TGI: > 100 µM
OVCAR-3 ovarian
  GI50: 1.08 µM
  TGI: 19.8 µM
SK-OV-3 ovarian
  GI50: 0.262 µM
  TGI: 12 µM
SNB-19 CNS
  GI50: 5.53 µM
  TGI: > 100 µM
SR leukemia
  GI50: 0.27 µM
  TGI: > 70.6 µM
TK-10 renal
  GI50: 0.148 µM
  TGI: 27.1 µM
UACC-62 melanoma
  GI50: 0.118 µM
  TGI: 18.9 µM

## C/C(=C1/N=C(c2cc([N+](=O)[O-])ccc2Cl)N(c2ccc(Br)cc2)C1=O)c1ccc(N(CCC#N)CCC#N)cc1C
MOLT-4 leukemia
  TGI: > 100 µM
NCI-H226 lung
  TGI: > 100 µM
NCI-H23 lung
  TGI: > 100 µM
NCI-H460 lung
  TGI: > 100 µM
OVCAR-3 ovarian
  TGI: 99.7 µM
SK-OV-3 ovarian
  TGI: > 100 µM
SNB-19 CNS
  TGI: > 100 µM
SR leukemia
  TGI: 42.1 µM
TK-10 renal
  TGI: > 100 µM
UACC-62 melanoma
  TGI: 97.5 µM
